Assay results published in US20240026301A1, “METHODS AND COMPOSITIONS FOR GENERATING ENDOTHELIAL CELLS FROM PLURIPOTENT STEM CELLS” (Trailhead Biosystems Inc., priority 2022, published 2024).
“Also recorded” adds a separate entry of the source.

Key:
PECAM1 (CD31) = experiment: 8-factor HD-DoE experiments (qPCR, partial least squares models) optimized for maximum expression of PECAM1 (CD31), stage 2 differentiation; format: cell-based, human
Procedure: First, undifferentiated iPSC were grown for 48 h in CDM2 media containing 6 uM CHIR99021 (referred to herein as stage 1). Then stage 2 media was engineered. The basis of this was an 8-factor HD-DoE experiment with focus on differentiation of cells toward the endothelial lineage for an additional 3 days after termination of stage 1 treatment. To test the effectors, 48 different combinations of effectors generated using Design-of-Experiments compression through D-optimality were robotically prepared. The effector combinations were prepared in a basal media and were subsequently added to the cells, which were then allowed to differentiate. Three days later, RNA extraction was performed, and gene expression was obtained using quantitative PCR analysis. The data were normalized and modeled using partial least squares regression analysis to the effector design, resulting in the generation of gene-specific models, which after model tuning for maximal Q2 predictive power, provided explanation of the effectors ability to control the expression of individual genes, combinatorically, and individually. Solutions within the tested space could then be explored to address desirability. Optimizing for maximal expression of CD31 led to a robust solution. […] On this model, we observed high levels of KDR, important receptor for VEGF signaling.
This model was derived from initial testing of eight factors including: VEGF, FGF2, TTNBP, AGN194310, Y27632, Thymosin B4 and Heparin.
Next, we evaluated further factors to possibly increase the complexity of the signaling inputs to attain effective fate control. As previously, we focused on expression of CD31. Optimizing for maximal expression of the CD31 led to a robust solution. […] This model was derived from initial testing of eight factors including: YHHU-3792, DBZ, Pumorphamine, SANT1, LPA, YODA1, VEGF and B27. […] DBZ and LPA had low contributions factors and therefore were not used in the recipe.
To further improve the recipe for endothelial cell differentiation, we performed additional HD-DoE experiments. This model was derived from initial testing of eight factors including: VEGF, FGF2, Sphingosine 1 phosphate, VH298, Pyrintegrin, Erythropoetin, L-ascorbic acid and XAV939. […] On this model, we observed high levels of KDR, important receptor for VEGF signaling. […] Considering all the models analyzed, based on predicted conditions that maximize expression of endothelial enriched genes such as ERG, CDH5, CD31, FLI1, CD34, a complex recipe for endothelial differentiation was developed that is composed of 6 effectors, as shown below in Table 2: […]

FLI1 = experiment: Factor criticality analysis (dynamic profile analysis), FLI1 expression level; format: cell-based, human; conditions: for values of Fli1, effector present / values of Fli1, effector removed: FIG. 6 model; for values of Fli1, effector present: all factors present; for values of FLI1, effector present: all finalized factors present
Procedure: (§1) First, undifferentiated iPSC were grown for 48 h in CDM2 media containing 6 uM CHIR99021 (referred to herein as stage 1). Then stage 2 media was engineered. The basis of this was an 8-factor HD-DoE experiment with focus on differentiation of cells toward the endothelial lineage for an additional 3 days after termination of stage 1 treatment. To test the effectors, 48 different combinations of effectors generated using Design-of-Experiments compression through D-optimality were robotically prepared. The effector combinations were prepared in a basal media and were subsequently added to the cells, which were then allowed to differentiate. Three days later, RNA extraction was performed, and gene expression was obtained using quantitative PCR analysis. The data were normalized and modeled using partial least squares regression analysis to the effector design, resulting in the generation of gene-specific models, which after model tuning for maximal Q2 predictive power, provided explanation of the effectors ability to control the expression of individual genes, combinatorically, and individually. Solutions within the tested space could then be explored to address desirability.
(§2) To assess the impact of elimination of each validated factor on genes associated with the endothelial lineage, dynamic profile analysis was used and the expression levels of genes of interest were compared in the absence of each finalized factor while others are kept present.
(§3) In this analysis, removal of a finalized effector while keeping other factors was used to analyze the impact of factors on the expression levels of CD31, CD34, FLi1 and CDH5 (FIG. 5A).

CD34 = experiment: Factor criticality analysis (dynamic profile analysis), CD34 expression level; format: cell-based, human; conditions: for CD34 levels, effector removed / values of CD34, effector removed: named effector removed; for values of CD34, effector present / values of CD34, effector removed: FIG. 5 model; for values of CD34, effector present: all finalized factors present; for values of CD34, effector removed: other factors kept
Procedure: as §1, §2, §3

CD31 [1] = experiment: Factor criticality analysis (dynamic profile analysis), CD31 expression level; format: cell-based, human; parameters: values of CD31, effector removed / CD31 levels, effector removed / CD31 levels before addition of the SHH agonist / CD31 levels after addition of the SHH agonist: unit not given here; conditions: for values of CD31, effector present / values of CD31, effector removed: FIG. 6 model; for values of CD31, effector present: all factors present
CDH5 [2] = experiment: Factor criticality analysis (dynamic profile analysis), CDH5 expression level; format: cell-based, human
[3] = test system: PECAM1, CD34, CDH5 and FLI1; experiment: Dynamic profile analysis of expression levels relative to effector concentration (figure legends); format: cell-based, human; conditions: for impact on expression of PECAM1, CD34, CDH5 and FLI1: FIG. 5A-5B, slope of plots relative to effector concentration
Source text: FIG. 5A-5B show the dynamic profile analysis of expression levels of PECAM1, CD34, CDH5 and FLI1 relative to the concentration of 3 validated effectors.
FIG. 6A-6B show the dynamic profile analysis of expression levels of PECAM1, CD34, CDH5 and Fli1 relative to the concentration of 3 validated effectors.
as §2

CD31 [4] = experiment: Factor criticality analysis (dynamic profile analysis), CD31 expression level; format: cell-based, human; parameters: values of CD31, effector removed: unit not given here; conditions: FIG. 5 model; for values of CD31, effector present: all finalized factors present; for values of CD31, effector removed: named effector removed, other factors kept
Procedure: as §1, §2, §3

CDH5 [5] = experiment: Factor criticality analysis (dynamic profile analysis), CDH5 expression level; format: cell-based, human; conditions: FIG. 5 model; for values of CDH5, effector present: all finalized factors present; for values of CDH5, effector removed: named effector removed, other factors kept
Procedure: as §1, §2, §3

pluripotent stem cells = conditions: DMEM base media with ascorbic acid; GSK-inhibitor treatment; cited from earlier work
[6] = model of FIG. 2, factors VEGF, FGF2, TTNBP, AGN194310, Y27632, Thymosin B4, Heparin, 3 days after stage 1
[7] = model of FIG. 4, factors VEGF, FGF2, Sphingosine 1 phosphate, VH298, Pyrintegrin, Erythropoetin, L-ascorbic acid, XAV939
[8] = FIG. 6 model, all factors present
[9] = model of FIG. 3, factors YHHU-3792, DBZ, Pumorphamine, SANT1, LPA, YODA1, VEGF, B27
[10] = FIG. 7 model, L-ascorbic acid kept in the model
[11] = FIG. 7 model, named effector removed, L-ascorbic acid kept

| Molecule | factor contribution (positive impact on expression of genes of interest) (PECAM1 (CD31); [6]) | factor contribution (positive impact on expression of genes of interest) (PECAM1 (CD31); [7]) | factor contribution (positive impact on expression of genes of interest) (PECAM1 (CD31); [9]) | values of FLI1, effector present (FLI1; FIG. 5 model) | values of CD31, effector present (CD31 [4]) | values of CD31, effector removed (CD31 [4]) | values of CDH5, effector present (CDH5 [5]) | values of CDH5, effector removed (CDH5 [5]) | values of CD34, effector present (CD34) | values of CD34, effector removed (CD34) | impact on expression of PECAM1, CD34, CDH5 and FLI1 [3] | also measured |
| --- | --- | --- | --- | --- | --- | --- | --- | --- | --- | --- | --- | --- |
| FGF2: FGFR agonist, e.g. recombinant human FGF2 | did not significantly impact the expression of CD31 | 16 |  |  |  |  |  |  |  |  |  | values of Fli1, effector present (FLI1): 1300; values of Fli1, effector removed (FLI1; named effector removed): 500; CD34 levels, effector removed (CD34; FIG. 6 model): did not change significantly; values of CD31, effector present (CD31 [1]): 6500; values of CD31, effector removed (CD31 [1]; named effector removed): 1990; values of CDH5, effector present (CDH5 [2]; [8]): 19000; values of CDH5, effector removed (CDH5 [2]; FIG. 6 model, named effector removed): 5000; impact on PECAM1, FLI1, and CDH5 expression ([3]; FIG. 6A-6B model): positive impact |
| VEGF | 39 | 42 | 32 | 4900 | 2000 | 340 | 10000 | 0 | 6500 | 1000 | positive impact | values of FLI1, effector removed (FLI1; FIG. 5 model, named effector removed, other factors kept): 1035; impact on expression of all genes (PECAM1, CD34, CDH5 and Fli1) ([3]; FIG. 6A-6B model): positive impact; also recorded: critical; impact on expression of all genes (PECAM1, CD34, CDH5 and Fli1) ([3]; FIG. 7A-7B model): positive impact |
| C/C(=C\c1ccc(C(=O)O)cc1)c1ccc2c(c1)C(C)(C)CCC2(C)C [TTNBP] | 21 |  |  | 2883 | 2000 | 1077 | 10000 | 2600 | 6500 | 4300 | positive impact |  |
| Cc1c[nH]c(-c2cnc(NCCNc3ccc(C#N)cn3)nc2-c2ccc(Cl)cc2Cl)n1 [CHIR99012] |  |  |  |  |  |  |  |  |  |  |  | yield of CD34+CD31+ cells prior to sorting (pluripotent stem cells): 20-30% |
| c1ccc2c(Oc3nc(Nc4ccc(N5CCOCC5)cc4)c4ncn(C5CCCCC5)c4n3)cccc2c1 [Pumorphamine] |  |  |  |  |  |  |  |  |  |  |  | CD31 levels after addition of the SHH agonist (CD31 [1]; FIG. 7 model, agent added): 400; CD31 levels before addition of the SHH agonist (CD31 [1]; FIG. 7 model, without the added agent): 800 |
| Cc1nn(-c2ccccc2)c(C)c1/C=N/N1CCN(Cc2ccccc2)CC1 [SANT1] |  |  | 16 |  |  |  |  |  |  |  |  | CD31 levels, effector present (CD31 [1]; [10]): 808; CD31 levels, effector removed (CD31 [1]; [11]): 563; CDH5 levels, effector present (CDH5 [2]; [10]): 2928; CDH5 levels, effector removed (CDH5 [2]; [11]): 2340; impact on PECAM1 and CDH5 expression ([3]; FIG. 7A-7B model): positive impact |
| Oc1nc(-c2ccc(C(F)(F)F)cc2)nc2c1CSCC2 [XAV939] |  | 15 |  |  |  |  |  |  |  |  |  | values of Fli1, effector present (FLI1): 13400; values of Fli1, effector removed (FLI1; named effector removed): 7300; CD34 levels, effector present (CD34; [8]): 7180; CD34 levels, effector removed (CD34; FIG. 6 model): 5836; values of CD31, effector present (CD31 [1]): 6500; values of CD31, effector removed (CD31 [1]; named effector removed): 2225; impact on PECAM1 and Fli1 expression ([3]; FIG. 6A-6B model): positive impact |
| C[C@H](NC(=O)Cc1cc(F)cc(F)c1)C(=O)N[C@@H]1C(=O)N(C)c2ccccc2-c2ccccc21 [DBZ] |  |  | low |  |  |  |  |  |  |  |  |  |
| heparin | 11 |  |  | 2883 | 2000 | 1500 | 10000 | 5800 | 6500 | 4800 | positive impact |  |
